Measured values: PubChem BioAssay AID489022 (Sanford-Burnham Center for Chemical Genomics, 2010)
pIC50: −log10 of the molar value. The source made the active and inactive calls. How the calls were made is not given here.

tested on: HEK-293T NF-kB luciferase reporter, luminescence counterscreen; assay: NF-kB reporter suppression in HEK-293T cells – luminescence, B-cell screen hits, counter-screen for BCR NF-kB inhibitor project, dose response (AID 489022)

Row | SMILES | pIC50 | IC50
1 | CCOc1ccc(-c2c[n+]3c(n2-c2ccccc2)CCCCC3)cc1 | 5.48 | 
2 | Cc1c(CCC(=O)N2CCC(C(=O)O)(c3ccccc3)CC2)c(=O)oc2cc3oc4c(c3cc12)CCCC4 |  | 21.6 µM (inactive)
3 | COc1cc(-c2cc(=O)c3c(O)c(OC)c(OC)c(OC)c3o2)cc(OC)c1OC |  | > 80 µM (inactive)
4 | O=C1NC[C@H](c2ccccc2)OC(=O)[C@@H](Cc2ccc(F)cc2)C/C=C\C[C@H]1CC(=O)N(CCO)Cc1ccccc1 | 4.77 | 
5 | Cc1c(NC(=O)/C=C/c2cn(-c3ccccc3)nc2-c2ccccc2)c(=O)n(-c2ccccc2)n1C |  | > 80 µM (inactive)
6 | Cc1noc(C)c1CSc1nc2[nH]ncc2c(=O)n1-c1ccccc1 | 5.11 | 
7 | COc1ccc(C(=O)Nc2nnc(SCC(=O)Nc3ccc(NC(C)=O)cc3)s2)c(OC)c1 |  | > 80 µM (inactive)
8 | N=c1ccn(Cc2c(Cl)cccc2Cl)cc1 | 4.85 | 
9 | COc1ccc(-n2ncc3c(N4CCC(C(N)=O)CC4)ncnc32)cc1 |  | > 80 µM (inactive)
10 | CCOc1ccc(-c2cc(CCCC(=O)NCc3ccco3)no2)cc1 |  | 22.1 µM (inactive)
11 | CCN(CC)c1ccc(/C=N/N=C(c2ccccc2)c2ccccc2)c(O)c1 |  | > 80 µM (inactive)
12 | CCCN1C(=O)/C(=C/c2c(N3CCNC(=O)C3CC(=O)OCC)nc3c(C)cccn3c2=O)SC1=S (stereo not given) | 4.84 | 
13 | COc1cc(C2C(C#N)=C(N)Oc3cc(N)ccc32)cc(OC)c1OC (stereo not given) |  | > 80 µM (inactive)
14 | c1ccc(CCNc2ncnc3ccccc23)cc1 | 6.35 | 
15 | C/C(=N\Nc1nc(Nc2ccccc2)nc(N2CCOCC2)n1)c1cccs1 |  | > 80 µM (inactive)
16 | COc1cc(OC)c(/C=N/NC(N)=S)cc1Br |  | > 80 µM (inactive)
17 | CCCCn1c2c(c(=N)c3ccccc31)CCC2 |  | 40.8 µM (inactive)
18 | CC1Cc2ccccc2N1S(=O)(=O)c1cnc(Cl)c(Br)c1 (stereo not given) |  | 41.6 µM (inactive)
19 | COc1cccc(N2CCN(c3ncnc4c3[nH]c3ccc(F)cc34)CC2C)c1 (stereo not given) | 6.18 | 
20 | Cn1c(=NC(=O)CCl)sc2ccccc21 |  | 21.6 µM (inactive)
21 | Cn1c(=O)cc(OCC(=O)N2CCC3(CC2)OCCO3)c2ccccc21 |  | > 80 µM (inactive)
22 | C(=N\Nc1nc(Nc2ccccc2)nc(N2CCOCC2)n1)/c1c[nH]c2ccccc12 |  | 53 µM (inactive)
23 | Cc1ccc(/C=C2\SC(=S)N(CCCC(=O)NNC(=O)c3ccccc3O)C2=O)cc1 | 5.26 | 
24 | CCN(C(=O)CN1C(=O)NC(c2ccccc2)(c2ccc(C)c(C)c2)C1=O)C1CCCCC1 (stereo not given) |  | 26.6 µM (inactive)

Row | SMILES | pIC50 | IC50
25 | CCCOc1ccc(NC(=O)C(=O)NCCCn2ccnc2)cc1 |  | > 80 µM (inactive)
26 | COc1cc2c3c(c1)c(N=NC(N)=S)c(O)n3C(C)(C)C=C2C |  | > 80 µM (inactive)
27 | COC(=O)CSc1nnc(-c2sc3ccccc3c2Cl)o1 | 5.14 | 
28 | Cc1cc(C)cc(NC(=O)c2nnn(Cc3cc(C)ccc3C)c2N)c1 | 5.32 | 
29 | CN1C(=O)CC(c2ccco2)Sc2ccccc21 (stereo not given) |  | > 80 µM (inactive)
30 | CCOC(=O)Cc1ccc(NC(=O)c2ccc(C(C)(C)C)cc2)cc1 | 5.98 | 
31 | CCOC(=O)C1CCN(c2ncnc3c2cnn3-c2ccc(OC)cc2)CC1 | 4.74 | 
32 | COC(=O)[C@@]12OC[C@]34[C@H]([C@@H](O)[C@@H]1O)[C@@]1(C)C(=O)C(O[C@@H]5OC(CO)[C@@H](O)[C@@H](O)[C@@H]5O)=C[C@@H](C)[C@@H]1C[C@H]3OC(=O)[C@H](OC(=O)/C=C(\C)C(C)(C)OC(C)=O)[C@@H]24 (stereo not given in full) | 5.49 | 
33 | C=CCn1c(O)c(C(C)=NC(C)c2ccccc2)c(=O)[nH]c1=O (stereo not given) |  | 60.2 µM (inactive)
34 | Cc1cccn2c(=O)c3cc(C(=O)NC4CCCCC4)c(=N)n(CCN4CCOCC4)c3nc12 |  | > 80 µM (inactive)
35 | CCOc1ccc(-n2c(SCC(=O)Nc3ccc4c(c3)OCCO4)nc3c(c2=O)SCC3)cc1 |  | > 80 µM (inactive)
36 | COc1ccc(NC(=S)NCc2ccccc2)c(OC)c1 |  | > 80 µM (inactive)
37 | CC1=CC(C)(C)Nc2ccc(OC(=O)c3ccco3)cc21 | 4.79 | 
38 | CCN(CC)CCCN=Cc1c(-c2ccccc2)[nH]n(-c2nc3ccccc3s2)c1=O |  | > 80 µM (inactive)
39 | CCC(=O)N(C1=C(NC)C(=O)c2ccccc2C1=O)C(C)C |  | > 80 µM (inactive)
40 | CC(=C\c1ccccc1)/C=C1/SC(=O)N(CCCC(=O)Nc2ccc(C(=O)O)cc2)C1=O |  | > 80 µM (inactive)
41 | Oc1cc(O)cc(-c2cc3ccc(O)cc3o2)c1 |  | > 80 µM (inactive)
42 | Cc1ccc(S(=O)(=O)CC2CSc3nc4ccccc4n32)cc1 (stereo not given) | 6.39 | 
43 | O=C(NCCC1CCCCN1S(=O)(=O)c1ccc(Cl)cc1)C(=O)NCc1ccncc1 (stereo not given) |  | 20.4 µM (inactive)
44 | COc1cc(NC(=O)c2cc3c(C)nc4ccccc4c3o2)cc(OC)c1OC | 4.74 | 
45 | Cc1ccc(C)c(OCc2ccc(C(=O)NN)o2)c1 |  | > 80 µM (inactive)
46 | Cc1ccc(C(=O)CSc2nnc(COc3cccc(C)c3)o2)cc1 |  | 21.6 µM (inactive)
47 | O=[N+]([O-])c1ccc(Sc2cc[n+]([O-])c3ccccc23)c([N+](=O)[O-])c1 |  | > 80 µM (inactive)
48 | CC(C)(O)/C=C/C(=O)[C@](C)(O)C1[C@H](O)C[C@@]2(C)C3CC=C4C(C[C@H](O)[C@@H](O)C4(C)C)[C@]3(C)C(=O)C[C@]12C (stereo not given in full) |  | 65.8 µM (inactive)

Row | SMILES | pIC50 | IC50
49 | CCn1c(=O)cc(SCC(=O)N2CCOCC2)c2ccccc21 |  | > 80 µM (inactive)
50 | CC1CC(C)(C)Nc2ccc(OC(=O)c3ccco3)cc21 (stereo not given) | 5.05 | 
51 | CC(C)N1C(=O)S/C(=C/c2ccc3c(c2)n(C)c(=O)n3C)C1=O |  | > 80 µM (inactive)
52 | CCN(CC(=O)Nc1c(F)cccc1F)C(=O)c1cc([N+](=O)[O-])ccc1N1CCCCC1 |  | > 80 µM (inactive)
53 | CN1CCN(C(=O)c2ccccc2N(Cc2ccccc2)S(=O)(=O)c2ccccc2)CC1 |  | 45.4 µM (inactive)
54 | COc1ccc(-n2nnnc2S(=O)(=O)CC(=O)N2CCCCC2)cc1 | 4.77 | 
55 | COCCCNC(=O)COc1ccc(-c2nccc(-c3ccccn3)n2)cc1 |  | 48.1 µM (inactive)
56 | COc1ccc(-c2noc(CCCC(=O)O)n2)cc1 | 5.40 | 
57 | COc1ccc(NC(=O)c2cc3c(Cl)nc4ccccc4c3s2)cc1OC |  | > 80 µM (inactive)
58 | Cc1ccc(/C=C2\SC(=S)N(CCCC(=O)Nc3cc(C)on3)C2=O)cc1 |  | > 80 µM (inactive)
59 | CCc1cccc(NC(=O)c2ccc(CNc3c(N4CCCC4)c(=O)c3=O)cc2)c1 |  | > 80 µM (inactive)
60 | O=C(Nc1cccc(S(=O)(=O)Nc2ccc(Cl)cc2)c1)c1ccc(Cl)nc1 | 6.10 | 
61 | CCCCCCn1c(-c2ccco2)nc2oc3cc(OC)ccc3c(=O)c2c1=O |  | > 80 µM (inactive)
62 | O=C(Nc1cccc(Br)c1)c1ccc2c(c1)SC1=NS(=O)(=O)CCN12 | 4.98 | 
63 | Cc1c(CCC(=O)N2CCC[C@H]2C(=O)O)c(=O)oc2cc3oc4c(c3cc12)CCCC4 | 5.07 | 
64 | Cc1nc2cc(-c3ccc(Cl)cc3)nn2c(C)c1CCC(=O)NCc1ccco1 |  | > 80 µM (inactive)
65 | O=C(CCCN1C(=O)S/C(=C\C=C\c2ccccc2)C1=O)Nc1ccc(O)cc1 |  | > 80 µM (inactive)
66 | CCCCCC/C=C/c1ccc(OC)c([C@H]2[C@H]3C=CC[C@@H](C)[C@@H]3C(=O)N2Cc2ccccc2)c1 |  | > 80 µM (inactive)
67 | COc1cc(-c2nc3n(n2)C(c2ccc(F)cc2)C2=C(CCCC2=O)N3)cc(OC)c1OC (stereo not given) |  | 30.4 µM (inactive)
68 | COCCNC(=O)CSCc1nc(-c2ccc(SC)cc2)oc1C |  | 65.6 µM (inactive)
69 | Cc1ccc(/C=C2\SC(=S)N(CCCC(=O)Nc3cccnc3)C2=O)cc1 |  | 51.8 µM (inactive)
70 | N=c1c2c(n(Cc3ccc(Cl)c(Cl)c3)c3c1CCC3)CCCC2 | 5.63 | 
71 | COc1ccc(NC(=O)c2cc(-c3ccccn3)nc3ccccc23)cc1S(=O)(=O)N(C)C |  | 51.4 µM (inactive)
72 | COc1ccc(-c2nsc(SCC(=O)Nc3cc(C)on3)n2)cc1 |  | > 80 µM (inactive)

Row | SMILES | pIC50 | IC50
73 | CCn1c(=O)cc(SCC(=O)N2CCN(C)CC2)c2ccccc21 |  | > 80 µM (inactive)
74 | Cn1c(=O)cc(OCCCC(=O)N2CCCCC2)c2ccccc21 |  | 60.2 µM (inactive)
75 | O=C(CCCN1C(=O)/C(=C/c2ccccc2Cl)SC1=S)NNC(=O)c1ccncc1 | 4.90 | 
76 | O=C(O)CCn1c(O)c(C=C2N=c3ccccc3=N2)sc1=S |  | 70.8 µM (inactive)
77 | COc1ccc(/C=C2\SC(=S)N(CCC(=O)Nc3ccc(C(=O)O)cc3)C2=O)cc1OC |  | > 80 µM (inactive)
78 | Cc1ccc(-c2nn3c(C)nnc3c3ccccc23)cc1S(=O)(=O)NC(C)(C)CO |  | 27.6 µM (inactive)
79 | COc1cccc(/C=C2/SC(=S)N(CCCC(=O)Nc3ccc(O)cc3)C2=O)c1 |  | 50.6 µM (inactive)
80 | Cc1ccc(C(=O)C[n+]2cc(-c3ccc(C)cc3)n3c2CCCCC3)cc1 | 5.35 | 
81 | Cn1c(=O)n(C)c2cc(/C=C3/NC(=O)N(Cc4ccccc4)C3=O)ccc21 |  | > 80 µM (inactive)
82 | Cc1cc(C)cc(OCc2nnc(SCC(=O)c3ccccc3)o2)c1 |  | 23.7 µM (inactive)
83 | CC(C)CCNC(=O)CCCOc1cc(=O)n(C)c2ccccc12 |  | 60.7 µM (inactive)
84 | Cc1ccc(/C=C2\SC(=S)N(CCC(=O)NNC(=O)c3ccncc3)C2=O)cc1 |  | > 80 µM (inactive)
85 | Cc1ccc(C(=O)OCC(=O)N(CC(C)C)c2c(N)n(Cc3ccccc3)c(=O)[nH]c2=O)o1 |  | > 80 µM (inactive)
86 | CC1CCC/C=C/C2CC(O)CC2C(O)/C=C/C(=O)O1 (stereo not given) | 6.28 | 
87 | C=CCOc1ccccc1CN(C(=O)CCl)c1ccc2c(c1)OCO2 |  | 28.1 µM (inactive)
88 | C=CCOC(=O)COc1cc(C)cc2oc(=O)c3c(c12)CCC3 |  | > 80 µM (inactive)
89 | COc1ccc(/C=C2/SC(=S)N(CCC(=O)O)C2=O)cc1 |  | 24.3 µM (inactive)
90 | N=c1ccn(Cc2ccccc2Cl)cc1 |  | 21.3 µM (inactive)
91 | CCOc1ccc(/C=C2\SC(=S)N(CCC(=O)Nc3cccc(C(=O)O)c3)C2=O)cc1 |  | > 80 µM (inactive)
92 | CC(C)c1[nH]nc2c1C(c1ccco1)C(C#N)=C(N)O2 (stereo not given) |  | > 80 µM (inactive)
93 | Cc1c(CCC(=O)N2CCC(C(=O)O)CC2)c(=O)oc2cc3oc4c(c3cc12)CCCC4 | 4.89 | 
94 | CC(C)CN(C(=O)COC(=O)C12CC3CC(CC(C3)C1)C2)c1c(N)n(Cc2ccccc2)c(=O)[nH]c1=O | 4.97 | 
95 | Cc1ccc(/C=C2/SC(=S)N(CCCC(=O)Nc3ccc(O)cc3)C2=O)cc1 |  | > 80 µM (inactive)
